The text below walks through data of publication PMC3115046, “Analyzing Airway Inflammation with Chemical Biology: Dissection of Acidic Mammalian Chitinase Function with a Selective Drug-like Inhibitor” (Chemistry & Biology, 2011).

The structures appear in SMILES notation.

The test system of experiment [1] is allergen-challenged mice. The conditions noted are these: ref Matsumoto et al., 2009, cited from earlier work.
The subject of experiment [2] is Aspergillus fumigatus chitinase B1 (AfChiB1). On the set-up: method as in Schuttelkopf et al., 2011. The note with it: ref Schuttelkopf et al., 2011; cited from earlier work.
Experiment [3] deals with human chitotriosidase (hCHIT1) (Homo sapiens, UniProt Q13231). In words: Chitinase activity assay with fluorescent 4-MU substrate, hCHIT1. Format: biochemical. The conditions noted are these: read-out: IC50 against hCHIT1.
Sequence of human chitotriosidase (hCHIT1) (Q13231 22-466): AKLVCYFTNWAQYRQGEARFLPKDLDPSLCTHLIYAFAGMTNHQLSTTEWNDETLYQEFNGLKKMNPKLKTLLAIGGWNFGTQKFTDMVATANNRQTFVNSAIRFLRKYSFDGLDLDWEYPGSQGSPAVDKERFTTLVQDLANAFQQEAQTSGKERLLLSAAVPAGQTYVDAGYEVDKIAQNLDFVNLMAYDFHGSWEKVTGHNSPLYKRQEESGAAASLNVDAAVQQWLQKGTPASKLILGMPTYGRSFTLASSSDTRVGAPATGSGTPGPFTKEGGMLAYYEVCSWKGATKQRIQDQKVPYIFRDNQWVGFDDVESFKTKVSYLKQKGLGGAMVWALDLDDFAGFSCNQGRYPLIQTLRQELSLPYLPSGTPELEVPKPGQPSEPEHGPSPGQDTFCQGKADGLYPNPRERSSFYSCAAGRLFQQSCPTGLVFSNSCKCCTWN
The test system of experiment [4] is murine CHIT1 [mCHIT1]. The note with it: read-out: IC50 murine CHIT1; ref Zheng et al., 2005; Boot et al., 2001; cited from earlier work.

Consider `CNC1=N[C@@H]2[C@@H](O)[C@H](O[C@@H]3O[C@H](CO)[C@@H](O[C@@H]4O[C@H](CO)[C@@H](O)[C@@H](O)[C@H]4NC(C)=O)[C@@H](O)[C@H]3NC(C)=O)[C@@H](CO)[C@@H]2O1` [demethylallosamidin], for which, in experiment [1] (Zhu et al., 2004), the “allergen or IL-13-induced airway hyperresponsiveness” value was “reduces” and the “eosinophilia in allergen-challenged mice” value is listed as “significantly reduced”. Besides, the “neutrophil recruitment in allergic mice” value in experiment [1] is recorded as “did not result in neutrophil recruitment”.

Consider `Cn1cnc2c1c(=O)n(CCCn1c(=O)c3c(ncn3C)n(C)c1=O)c(=O)n2C` [bisdionin C], for which the “ligand efficiency against AfChiB1” value in experiment [2] is given as −0.41 kcal·mol^−1·atom^−1. The IC50 in experiment [3] was 8.3 ± 0.7 µM.

With `CC(=O)N[C@H]1[C@H](O[C@H]2[C@@H](O)[C@@H](NC(C)=O)[C@H](O[C@H]3[C@H](O)[C@H]4N=C(N(C)C)O[C@H]4[C@@H]3CO)O[C@@H]2CO)O[C@H](CO)[C@@H](O)[C@H]1O` [allosamidin], the “eosinophilia in allergen-challenged mice” value in experiment [1] (Zhu et al., 2004) was “significantly reduced”. Moreover, the IC50 in experiment [4] is ~0.05 µM.
